SMILES strings stand for the structures. “And” between values parts separate entries of the source, which are not always exact repeats. Equal values may be shown once. Some results are limits rather than exact numbers.

Assay [1] addresses cAMP-dependent protein kinase (PKA) (Homo sapiens, UniProt P22694+P17612+P22612). Nature of the assay: Inhibitory activity against Protein kinase A (Histone). It is filed as protein assay.
Assay [2] has as its target T1, Cyclin-dependent kinase 4/cyclin D1 (Homo sapiens, UniProt P11802). Nature of the assay: Inhibitory activity against Cyclin D1-cyclin-dependent kinase 4 in enzymatic assay by measuring phosphorylation of RbING. The format is protein-complex assay.
Assay [3] concerns the target Cyclin-dependent kinase 2/cyclin E (Homo sapiens, UniProt P24941). The assay is described as follows: Inhibitory activity against Cyclin E-cyclin-dependent kinase 2 in enzymatic assay by measuring phosphorylation of RbING. It is filed as protein-complex assay.
For a further assay, the system named is NCI-H460. Nature of the assay: In vitro antiproliferative activity against human carcinoma cell line H460 (lung). It is filed as functional, cell-based.
The subject of assay [4] is HCT-116. Nature of the assay: GI arrest (1 fold increase over control) in HCT116 cells was determined by flow cytometry after 24 hr incubation. The format is functional, Homo sapiens.
Assay [5] has as its system HCT-116. Nature of the assay: In vitro antiproliferative activity against human carcinoma cell line HCT116 (colon). It is filed as functional, cell-based.
In assay [6] the target is Cyclin-dependent kinase 4 (Homo sapiens) (UniProt P11802). Nature of the assay: Inhibition of Rb phosphorylation at the CDK4 specific Ser780 residue (3 fold increase over control) after 24 hr incubation in HCT116 cells. The format is functional, cell-based. To be noted: HCT-116, concentration not given here.
Sequence of Cyclin-dependent kinase 4 (Homo sapiens) (P11802 whole entry): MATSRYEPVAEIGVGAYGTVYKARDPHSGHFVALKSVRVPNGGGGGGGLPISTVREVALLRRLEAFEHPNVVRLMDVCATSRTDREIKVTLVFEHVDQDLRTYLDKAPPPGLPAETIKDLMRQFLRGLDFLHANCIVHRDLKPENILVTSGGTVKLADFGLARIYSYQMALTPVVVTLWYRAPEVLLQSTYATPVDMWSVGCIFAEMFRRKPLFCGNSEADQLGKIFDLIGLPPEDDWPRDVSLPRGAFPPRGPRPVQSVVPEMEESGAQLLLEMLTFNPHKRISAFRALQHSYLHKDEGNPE
In assay [7] the target is T1, Cyclin-dependent kinase 4/cyclin D1. Nature of the assay: Inhibitory activity against Cyclin D1-cyclin-dependent kinase 4 in enzymatic assay by measuring phosphorylation of Rb21. It is filed as protein-complex assay.
The target in assay [8] is Cyclin-dependent kinase 4 (Homo sapiens) (UniProt P11802). Nature of the assay: Inhibition of Rb phosphorylation at the CDK4 specific Ser780 residue (1 fold increase over control) after 24 hr incubation in HCT116 cells. Particulars: HCT-116, concentration not given here. The format is functional, cell-based.
The target of a further assay is CaM kinase II (Homo sapiens, UniProt Q13557+Q13555+Q13554+Q9UQM7). Nature of the assay: Inhibitory activity against Calcium/calmodulin-dependent protein kinase type II. It is filed as protein assay.

T1 sequence (P11802 whole entry): as above
T1 sequence (P24385 whole entry, further chain): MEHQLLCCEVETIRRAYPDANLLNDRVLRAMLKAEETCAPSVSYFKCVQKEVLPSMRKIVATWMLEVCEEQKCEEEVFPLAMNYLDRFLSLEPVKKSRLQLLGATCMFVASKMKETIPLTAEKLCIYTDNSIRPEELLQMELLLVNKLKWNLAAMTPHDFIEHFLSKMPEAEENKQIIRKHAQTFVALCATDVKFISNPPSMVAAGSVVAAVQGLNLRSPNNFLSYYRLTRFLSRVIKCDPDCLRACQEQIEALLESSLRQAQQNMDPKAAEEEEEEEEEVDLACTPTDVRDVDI

In the case of `COc1ccc2c(c1)[nH]c1c3ccc4ccn(C)c4c3c3c(c21)C(=O)NC3=O`, the IC50 (in general, the point on the concentration scale where inhibition reaches its midpoint) in assay [1] is over 20000 nM; in assay [2] it was 53 nM; in assay [3], 112 nM; with NCI-H460 it was 1090 nM; in the assay on HCT-116 [5], 1800 nM; in assay [7], 6 nM. The same molecule had a Fold increase with HCT-116 [4] of 2.6. Moreover, the inhibition – broadly, the change of the read-out against control, counted positive when it falls – was found to be 97% in [6] and 90% in assay [8].

Regarding `COc1ccc2c3c4c(c5c(ccc6ccn(C)c65)c3n(CCCN3CCOCC3)c2c1)C(=O)NC4=O`, the half-inhibitory concentration (IC50) on CaM kinase II was over 20000 nM; in assay [1] it was over 20000 nM; in [2], 69 nM; in assay [3], 716 nM; with NCI-H460, 1630 nM; in the assay with HCT-116 [5], 1690 nM. The same molecule showed an IC50 in [7] of 21 nM.

`COC(=O)C1CCN(CCc2cccc3c2[nH]c2c4ccc5ccn(C)c5c4c4c(c32)C(=O)NC4=O)CC1`: the IC50 was 81 nM on CaM kinase II; over 20000 nM in assay [1]; 47 nM in [2]; 972 nM in [3]; over 10000 nM with NCI-H460; over 10000 nM with HCT-116 [5]. Moreover, the IC50 in assay [7] was 13 nM.

For the molecule `Cn1ccc2ccc3c4[nH]c5c(CCCN6CCOCC6)cccc5c4c4c(c3c21)C(=O)NC4=O`, the half-inhibitory concentration (IC50) on CaM kinase II is 516 nM; in [1], over 20000 nM; in assay [2], 56 nM; in [3] it was 1330 nM; with NCI-H460 it was 1680 nM; in the assay with HCT-116 [5], 2820 nM. Also, it took 43 nM to reach half-maximal inhibition in [7] (IC50).

Consider `Cn1ccc2ccc3c4[nH]c5c(CCN6CCC(O)CC6)cccc5c4c4c(c3c21)C(=O)NC4=O` [listing 1 of 2 here], for which the IC50 was determined as 46 nM on CaM kinase II; 2990 nM in [1]; 45 nM in [2]; 978 nM in assay [3]; 140 nM with NCI-H460; 200 nM in the assay on HCT-116 [5]. Besides, the IC50 in assay [7] came to 8 nM.

For the molecule `COc1ccc2c3c4c(c5c(ccc6ccn(C)c65)c3n(CCN3CCCCC3)c2c1)C(=O)NC4=O`, the IC50 at CaM kinase II is over 20000 nM; in [1], over 20000 nM; in assay [2] it was 135 nM; in assay [3], 928 nM; in the assay on NCI-H460, 2470 nM; in the assay with HCT-116 [5], 3740 nM. Moreover, the IC50 in assay [7] came out at 33 nM.

Take `Cn1ccc2ccc3c4[nH]c5c(CCN6CCC[C@H]6CO)cccc5c4c4c(c3c21)C(=O)NC4=O` [listing 1 of 2 here]: the inhibition is 73% in assay [6] and 65% in assay [8].

With `Cn1ccc2ccc3c4[nH]c5c(CCN6CCOCC6)cccc5c4c4c(c3c21)C(=O)NC4=O`, the inhibition in assay [6] is 88% and 80%; in assay [8], 57% and 69%.

As for `Cn1ccc2ccc3c4[nH]c5c(CCN6CCC[C@H]6CO)cccc5c4c4c(c3c21)C(=O)NC4=O` [listing 2 of 2 here], the IC50 was found to be 90 nM at CaM kinase II; 4580 nM in assay [1]; 39 nM in assay [2]; 685 nM in [3]; 210 nM with NCI-H460; 420 nM in the assay with HCT-116 [5]. In assay [7], this molecule had a half-inhibitory concentration (IC50) of 23 nM.

In the case of `Cn1ccc2ccc3c4[nH]c5c(CCN6CCNCC6)cccc5c4c4c(c3c21)C(=O)NC4=O`, the IC50 amounted to 301 nM at CaM kinase II; 12900 nM in assay [1]; 49 nM in [2]; 2030 nM in [3]; 1110 nM in the assay with NCI-H460; 1040 nM with HCT-116 [5]. Besides, the half-inhibitory concentration (IC50) in assay [7] is 15 nM.

`Cn1ccc2ccc3c4[nH]c5c(CCN6CCC(O)CC6)cccc5c4c4c(c3c21)C(=O)NC4=O` [listing 2 of 2 here]: the results for the inhibition in assay [6] and in assay [8] were 69% and 68%, respectively.

As for `COc1ccc2c3c4c(c5c(ccc6ccn(C)c65)c3n(CCCO)c2c1)C(=O)NC4=O`, the IC50 is 1040 nM in assay [1]; 54 nM in assay [2]; 113 nM in assay [3]; 500 nM in the assay with NCI-H460; 1620 nM in the assay with HCT-116 [5]; 12 nM in [7]. This molecule showed a Fold increase in the assay with HCT-116 [4] of 2.4. The inhibition in assay [6] was 95%; in [8], 66%.

In the assay with HCT-116 [4], `Cn1ccc2ccc3c4[nH]c5c(CCN6CCC(O)CC6)cccc5c4c4c(c3c21)C(=O)NC4=O.O=C(O)C(F)(F)F` came in with a Fold increase of 1.8.

For `Cn1ccc2ccc3c4[nH]c5cc(O)ccc5c4c4c(c3c21)C(=O)NC4=O`, the 50% inhibitory concentration (IC50) in assay [1] turned out to be 2350 nM; in assay [2], 33 nM; in the assay with NCI-H460, 1080 nM; with HCT-116 [5] it was 670 nM; in [7] it was 9 nM. This molecule gave a Fold increase in the assay on HCT-116 [4] of 2.2. In addition, the inhibition in assay [6] was 95%; in [8], 37%.

Turning to `COc1ccc2c3c4c(c5c(ccc6ccn(C)c65)c3n(CCCN3CCN(C)CC3)c2c1)C(=O)NC4=O`, the IC50 on CaM kinase II is 11600 nM; in [1], 2930 nM; in assay [2], 95 nM; in assay [3], 1230 nM; in the assay on NCI-H460, 900 nM; in the assay with HCT-116 [5] it was 450 nM. In assay [7], this molecule came in with an IC50 of 14 nM.

For `Cn1ccc2ccc3c4[nH]c5c(CCN6CCSCC6)cccc5c4c4c(c3c21)C(=O)NC4=O`, the IC50 on CaM kinase II is 403 nM; in assay [1], over 20000 nM; in assay [2] it was 82 nM; in [3], 1800 nM; in the assay with NCI-H460, 3410 nM; in the assay with HCT-116 [5], 3410 nM. For the same molecule, the IC50 in [7] is 24 nM.

Regarding `COc1ccc2c3c4c(c5c(ccc6ccn(C)c65)c3n(CCCN3CCSCC3)c2c1)C(=O)NC4=O`, the half-maximal inhibitory concentration (IC50) was over 20000 nM on CaM kinase II; over 20000 nM in assay [1]; 190 nM in [2]; 1260 nM in [3]; 2110 nM in the assay on NCI-H460; 2020 nM in the assay with HCT-116 [5]. Moreover, half-maximal inhibition in [7] (IC50) was put at 47 nM.

For the molecule `Cn1ccc2ccc3c4[nH]c5c(CCNCCO)cccc5c4c4c(c3c21)C(=O)NC4=O`, the IC50 on CaM kinase II was 95 nM; in assay [1], 6120 nM; in assay [2], 33 nM; in assay [3], 265 nM; with NCI-H460 it was 330 nM; with HCT-116 [5], 170 nM. The same molecule came in with an IC50 in assay [7] of 10 nM.

As for `COc1ccc2c3c4c(c5c(ccc6ccn(C)c65)c3n(CCCN3CCC(O)CC3)c2c1)C(=O)NC4=O`, the concentration for half-maximal inhibition (IC50) on CaM kinase II worked out at 3130 nM; in assay [1], 2810 nM; in [2], 48 nM; in [3], 2100 nM; with NCI-H460, 1130 nM; in the assay on HCT-116 [5], 1260 nM. In addition, the concentration for half-maximal inhibition (IC50) in [7] is 4 nM.

As for `CCN(CC)CCCc1cccc2c1[nH]c1c3ccc4ccn(C)c4c3c3c(c21)C(=O)NC3=O`, the IC50 is 174 nM at CaM kinase II; 14100 nM in [1]; 34 nM in [2]; 1500 nM in assay [3]; 370 nM in the assay with NCI-H460; 950 nM in the assay with HCT-116 [5]. In assay [7], this molecule returned an IC50 of 24 nM.

In the case of `COc1ccc2c3c4c(c5c(ccc6ccn(C)c65)c3n(CCN3CCC[C@H]3CO)c2c1)C(=O)NC4=O`, the IC50 at CaM kinase II was 6120 nM; in [1], over 20000 nM; in assay [2], 84 nM; in assay [3], 942 nM; with NCI-H460, 3800 nM; in the assay on HCT-116 [5], 2690 nM. Further, in [7], the midpoint of inhibition, the IC50, lay at 23 nM.

`Cn1ccc2ccc3c4[nH]c5c(CCN6CCC[C@H]6CO)cccc5c4c4c(c3c21)C(=O)NC4=O.O=C(O)C(F)(F)F`: in the assay on HCT-116 [4], the Fold increase came to 1.5.

`Cn1ccc2ccc3c4[nH]c5c(CCCNCCO)cccc5c4c4c(c3c21)C(=O)NC4=O`: the IC50 came out at 266 nM on CaM kinase II; 8310 nM in assay [1]; 40 nM in assay [2]; 567 nM in assay [3]; 1100 nM in the assay on NCI-H460; 770 nM in the assay on HCT-116 [5]. For the same molecule, the IC50 in assay [7] was 19 nM.

`CN1CCN(CCCc2cccc3c2[nH]c2c4ccc5ccn(C)c5c4c4c(c32)C(=O)NC4=O)CC1`: the IC50 worked out at 382 nM on CaM kinase II; 16600 nM in [1]; 52 nM in assay [2]; 1670 nM in assay [3]; 1480 nM in the assay with NCI-H460; 1380 nM in the assay on HCT-116 [5].

As to `Cc1cc2ccn(C)c2c2c3c(c4c5ccccc5[nH]c4c12)C(=O)NC3=O`, the concentration for half-maximal inhibition (IC50) in [1] is over 20000 nM; in assay [2] it was 28 nM; in [3], 70 nM; in the assay with NCI-H460 it was 2260 nM; in the assay on HCT-116 [5], 1980 nM; in assay [7], 2 nM.

Turning to `Cn1ccc2ccc3c4[nH]c5ccc(F)cc5c4c4c(c3c21)C(=O)NC4=O`, the half-maximal inhibitory concentration (IC50) in assay [1] was over 20000 nM; in [2], 84 nM; in assay [3] it was over 200 nM; with NCI-H460, over 10000 nM; in the assay with HCT-116 [5], over 10000 nM; in [7], 39 nM.

On to `COc1ccc2[nH]c3c4ccc5ccn(C)c5c4c4c(c3c2c1)C(=O)NC4=O`, for which the IC50 in assay [1] is over 20000 nM; in assay [2], 519 nM; in assay [3] it was over 2000 nM; in the assay with NCI-H460, over 10000 nM; in the assay with HCT-116 [5] it was over 10000 nM; in assay [7] it was 680 nM.

For `Cn1ccc2ccc3c(c4c(c5c6ccccc6n(CCCO)c35)C(=O)NC4=O)c21`, the IC50 in assay [1] is over 2000 nM; in assay [2], 96 nM; in [3], 67 nM; with NCI-H460 it was 1130 nM; with HCT-116 [5], 1360 nM; in assay [7], 42 nM.

The values are drawn from ChEMBL document CHEMBL1136094, “Novel, potent and selective cyclin D1/CDK4 inhibitors: indolo[6,7-a]pyrrolo[3,4-c]carbazoles” (Bioorg Med Chem Lett, 2003).
